Reference: US8768431B2, “Systems and methods for tissue imaging” (The Regents of the University of Michigan, priority 2007, dated 2014)

Assays:
[1] = system: 9L tumors; assay: fDM / diffusion MRI of intracerebral 9L tumors after BCNU; format: in vivo, rat; settings: for group mean VR: ±SEM
Procedure: (§1) Intracranial Tumor Implantation. All animal works were carried out in the animal facility of the University of Michigan (Ann Arbor, Mich.) in accordance with federal, local, and institutional guidelines. Intracerebral brain tumors were implanted in male Fischer 344 rats (Charles River Breeding Laboratories, Wilmington, Mass.) weighing between 125 and 150 g. Animals were anesthesized by intraperitoneal administration of a ketamine (87 mg/kg)/xylazine (13 mg/kg) mixture. A small skin incision was made over the right hemisphere, and a 1-mm-diameter burr hole was drilled through the skull. A sterile suspension of 1×10^5 9L cells in 5 μl of serum-free medium was introduced through a 27-gauge needle inserted to a depth of 3 mm. Rats were allowed to recover after tilling the burr hole with bone wax and suturing the skin closed.
(§2) Chemotherapy. Thirty-three animals with 9L tumors were entered into the study. When in vivo tumor volumes had reached […] were divided into four groups. Group 1 received 0.1 ml of drug vehicle (10% ethanol) and was used as a control group (n=7). Groups 2 to 4 received 6.65 mg/kg BCNU (n=7), 13.3 mg/kg BCNU (n=11), and 26.6 mg/kg BCNU (n=8), respectively, diluted in 10% ethanol. All treatments were administered by a single intraperitoneal injection on day 0. T2-weighted (T2, MRI transverse relaxation time) and diffusion MRI were performed every other day posttherapy to measure volumetric and cell density changes, respectively. Animal survival data were also obtained for all groups.
(§3) Diffusion MRI. Maps of tumor ADC values were acquired every other day up to 14 days posttherapy using a previously described method (see, e.g., Chenevert T L, et al., J Natl Cancer Inst. 2000; 92:2029-2036; herein incorporated by reference in its entirety). Briefly, a trace diffusion-weighted multislice spin echo sequence (with motion compensation and navigator echo) was used to acquire 13 slices with two different diffusion weightings [b1=100 sec/mm^2; b2=1248 sec/mm^2; image slice thickness=1 mm; image matrix=128×128 (0-256); field of view=30×30 mm; echo time=60 milliseconds]. During all MRI procedures, the animals were anesthesized with 1.5% isoflurane, and body temperature was maintained at 37° C. using a heated water-recirculating pad. The images acquired with b1 were essentially T2-weighted images, and these were used to segment the tumor from the normal brain for volumetric analysis using an “in-house” region drawing tool developed in MATLAB (Natick, Mass.).
Image Registration and fDM. An important part of fDM analysis is the registration of parametric ADC maps acquired posttherapy to baseline ADC maps acquired before treatment. Image registration was performed using an automated linear affine coregistration algorithm (MIAMI Fuse; University of Michigan, Ann Arbor, Mich.) to maximize mutual information between the two temporally distinct three-dimensional data sets (see, e.g., Meyer C R, et al., Med Image Anal. 1997; 1:195-206; herein incorporated by reference in its entirety). Following registration and tumor segmentation of voxels within the tumor both at baseline and on day 4, fDM statistics were calculated. Firstly, ADC values of voxels posttherapy were plotted as a function of baseline ADC values. These tumor voxels were then further segmented into three regions based on an upper threshold and a lower threshold of ADC change. That is, tumor voxels that had increased ADC above the upper threshold were region I (VR, red voxels), voxels that had decreased below the lower threshold were region 2 (VB, blue voxels), and all other voxels were region 3 (VG, green voxels). A comparison between treatment groups and the measurement of fDM dose dependence was accomplished to optimize the sensitivity of the thresholds used (±0.4×10^−9 m^2/sec). Normalized volumes were then calculated for each animal, and group statistics were calculated.

[2] = system: 9L tumors; assay: Animal survival of rats with intracerebral 9L tumors; format: in vivo, rat; settings: for median survival: rat 9L tumors, control 7 days
Procedure: as §1, §2
(§4) Tumor Cell Kill Calculations and Statistical Analysis. The quantification of tumor cell kill from serially volumetric imaging data for each animal was accomplished as previously described (see, e.g., Ross B D, et al., Proc Natl Acad Sci USA. 1998; 95:7012-7017; herein incorporated by reference in its entirety). In brief, log(cell kill)[…]log10[Vpre/Vpost], where V represents the tumor volume from MRI. Linear least squares analysis was used to measure the statistical significance of trends in the BCNU dose dependence of fDM volume, animal survival, and log cell kill, and in the correlation of fDM response with survival and cell kill. When two groups were compared, a one-tailed Student's /test was used. Both linear least squares and Student's t test were performed using Microsoft Excel (Microsoft, Redmond, Wash.). To compare the median survival of all four animal groups, a log rank test was performed using Prism (GraphPad Software, Inc., San Diego, Calif.).

[3] = system: 9L tumor cells; assay: MRI tumor volume and log cell kill of 9L tumors; format: in vivo, rat
Procedure: as §2, §3, §4

[4] = system: 9L tumors; assay: Histopathology (H&E) of fDM regions of 9L tumors; format: in vivo, rat; settings: 6.67 mg/kg BCNU; ×40 objective
Procedure: Histopathology. In a separate study consisting of eight animals, two animals per treatment group were imaged pretreatment and again at 6 to 7 days posttherapy. Following the second imaging session, animals were euthanized, and the brains were fixed in 10% paraformaldehyde. After 48 hours, fixed tissues were transferred to 70% ethanol and embedded in paraffin. Formalin-fixed paraffin-embedded specimens were serially sectioned and slide-mounted. Sections were stained with hematoxylin and eosin (H&E) and compared to fDMs.

[5] = system: PC3^Luc tumor cells; assay: Bioluminescence imaging of PC3Luc metastatic prostate cancer model; format: in vivo, SCID mice; settings: docetaxel 40 mg/kg/wk×3, n=9; controls rose continuously
Procedure: Cell Lines. PC3 cells were transfected with a luciferase-encoding pLazarus retroviral construct using Fugene 6 (Roche Applied Science, Indianapolis, Ind.) as per manufacturer's instructions. Wildtype PC3 cells were cultured in RPMI-1640 supplemented with 10% FBS whereas transfected cells (PC3^Luc were maintained in selection media supplemented with 200 μg/ml G418 (Invitrogen; Carlsbad, Calif.).
(§5) Mice. Male SCID mice (Charles River Laboratories, Wilmington, Mass.) were housed in specific pathogen free rooms at The University of Michigan AAALAC, International accredited facilities. For implantation of PC3^Luc cells, mice were anesthetized with 1.75% isotluorane/air anesthesia and 2×10^5 cells in 100 μl of sterile Dulbecco's PBS lacking Ca^+2and Mg^+2 (DPBS) were administered into the left ventricle of the heart.
Bioluminescence Detection. […] Bioluminescence studies were initiated prior to treatment for baseline values and performed throughout the experiment. For these studies, mice were anesthetized with a 2% isofluorane/air mixture and given a single i.p. dose of 150 mg/kg D-luciferin (Promega; Madison, Wis.) in normal saline. […] Results were analyzed using Living Image® software provided with the Xenogen imaging system. Signal intensity was quantified as the sum of all detected photon counts within a uniform region-of-interest (ROI) manually placed during data post processing.

[6] = system: PC3^Luc metastatic bone lesions; assay: fDM analysis of metastatic bone lesions of PC3Luc model; format: in vivo, SCID mice; settings: for percentage of increased ADC (fDM), representative treated animal: docetaxel 40 mg/kg/wk×3
Procedure: as §5
(§6) Magnetic Resonance Imaging. […] For MRI examination, mice were anesthetized with a 2% […] and maintained at 37 C, using a heated water bed, inside a 9.4-T Varian MR scanner (120-mm clear horizontal bore, Varian, Palo Alto, Calif.) and a double-tuned volume radiofrequency coil. A trace diffusion-weighted multi-slice spin echo sequence was used to acquire 15 slices with two different diffusion weightings (b1=184 s/mm^2, =1106 s/mm^2, slice thickness=0.5 mm, image matrix64×128, field of view=15×15 mm; TE=40 ms, TR=3.5 s). The z-gadient first moment was zeroed to reduce the dominant source of motion artifact as well as a 32-point navigator echo was prepended to each phase-encode echo. The phase deviation of each navigator echo relative to their mean was subtracted from the respective image echoes prior to the phase-encode Fourier transform. Images were acquired prior to treatment and subsequently 2 times per week. The low b-factor images were essentially T2-weighted to allow tumor volume measurements. The tumor boundary was manually defined on each slice and then integrated across slices to provide a volume estimate.
Image Registration and fDM. An important part of fDM analysis is the registration of post-treatment ADC maps to baseline pretreatment ADC maps. Image registration was performed using an automated linear affine coregistration algorithm to maximize mutual information between the two temporally distinct three-dimensional data sets (see, e.g., Meyer C R, et al., Med Image Anal 1997; 1:195-206; herein incorporated by reference in its entirety). Following registration and segmentation of voxels within the tumor both at baseline and on day 4, fDM statistics were calculated (I-Response™, Cedara Software, Mississauga, Ontario). Firstly, ADC values of voxels post therapy were plotted as a function of baseline ADC values. These voxels were then further segmented into three regions based on an upper and lower threshold of ADC change. Tumor voxels with an ADC increase above the upper threshold were depicted as red, whereas voxels that had decreased below the lower threshold were depicted as blue.

[7] = system: PC3^Luc metastatic bone lesions; assay: MRI tumor volume of PC3Luc bone lesions; format: in vivo, SCID mice
Excerpt: as §6

[8] = 6.65 mg/kg BCNU, day 4 posttreatment
[9] = 26.6 mg/kg BCNU, day 4 posttreatment
[10] = p<0.05, treated n=7 vs control n=5

O=NN(CCCl)C(=O)NCCCl [BCNU]
mean ADC change ([1]; 6.65 mg/kg BCNU, day 4, control −0.8±2.7%): 10.7±2.2%
group mean VR ([1]; 6.65 mg/kg BCNU, day 4, control 3.9±1.7): 10.6±2.8%
VB (tumor volume with decreased ADC), representative animal [1, 8]: 2.6%
VR (tumor volume with increased ADC), representative animal [1, 8]: 7.7%
mean ADC change (ΔADC) ([1]; 13.3 mg/kg BCNU, day 4): 22.9±5.3%
group mean VR ([1]; 13.3 mg/kg BCNU, day 4): 28.7±8.0%
VR (tumor volume with increased ADC), representative animal ([1]; 13.3 mg/kg BCNU, day 4 posttreatment): 30%
mean ADC change ([1]; 26.6 mg/kg BCNU, day 4): 49.0±9.7%
group mean VR ([1]; 26.6 mg/kg BCNU, day 4): 62.0 ±9.0%
VB (tumor volume with decreased ADC), representative animal [1, 9]: 0.3%
VR (tumor volume with increased ADC), representative animal [1, 9]: 90.6%
best-fit gradient of VR as a function of drug dose ([1]; day 4 posttreatment, threshold ±0.4×10^−9 m^2/sec, P=5.8×10^−6): 2.30 ± 0.40 kg/mg
median survival ([2]; 6.65 mg/kg BCNU single i.p.): 13 days posttherapy
median survival ([2]; 13.3 mg/kg BCNU single i.p.): 23.5 days posttherapy
median survival ([2]; 26.6 mg/kg BCNU single i.p.): 35.5 days posttherapy
animal survival relative to the control group ([2]; 6.65-26.6 mg/kg BCNU, log rank P<0.05): dose-dependent increase in animal survival
log cell kill ([3]; 6.65 mg/kg BCNU, control −0.09±0.04): −0.25±0.08
log cell kill ([3]; 13.3 mg/kg BCNU): 1.28±0.18
log cell kill ([3]; 26.6 mg/kg BCNU): 3.22±0.51
gradient of least squares fit, normalized tumor volume as a function of dose ([3]; 4 days posttreatment, 0-26.6 mg/kg BCNU, P=0.004): −4.0±1.3
active mitoses in low-diffusion (VB) region [4]: 153 mitoses in 10 high-power fields
mitoses in VR region [4]: 96 mitoses in 10 high-power fields

CC(=O)O[C@@]12CO[C@@H]1C[C@H](O)[C@@]1(C)C(=O)[C@H](O)C3=C(C)[C@@H](OC(=O)[C@H](O)[C@@H](NC(=O)OC(C)(C)C)c4ccccc4)C[C@@](O)([C@@H](OC(=O)c4ccccc4)[C@H]21)C3(C)C [docetaxel]
mean photon counts (luciferase activity) [5]: remained stable throughout the experiment
percentage of increased ADC (fDM), representative treated animal ([6]; day 7 post initiation): 4.0%
percentage of increased ADC (fDM), representative treated animal ([6]; day 14 post initiation): 30.0%
percentage of increased ADC (fDM), representative treated animal ([6]; day 18 post initiation): 53.7%
time at which fDM values differ significantly from control [6, 10]: 7 days post-treatment
mean changes in tumor diffusion by fDM ([6]; three week treatment period, treated n=7): progressively increasing fDM diffusion changes
MRI tumor volumes, outcome of therapy ([7]; control tumors kept growing, treated tumors did not): efficacious
time at which tumor volumes differ significantly from control [7, 10]: 11 day post-treatment initiation
